Test results: patent US20200277246A1, “TREATMENT METHOD, COMPOUNDS, AND METHOD OF INCREASING TRPV2 ACTIVITY” (THE FEINSTEIN INSTITUTE FOR MEDICAL RESEARCH, priority 2015, published 2020)
Several values for one entry are separate records, joined by “and”; a condition that tells them apart may be missing. Equal values may be shown once. Entries after “also recorded” stand apart in the source; their conditions may differ.

Tests used:
Trpv2 = target: T1, Trpv2 (Rattus norvegicus, UniProt Q9WUD2); assay: Intracellular calcium influx (Fluo-4 NW) in DA FLS; format: cell-based; parameters: endogenous in cells; host or cells: fibroblast-like synoviocytes (FLS) from DA rats; conditions: for Intracellular calcium influx vs untreated and vehicle: increasing concentrations, two DA FLS cell lines
T1 sequence (Q9WUD2 1-761): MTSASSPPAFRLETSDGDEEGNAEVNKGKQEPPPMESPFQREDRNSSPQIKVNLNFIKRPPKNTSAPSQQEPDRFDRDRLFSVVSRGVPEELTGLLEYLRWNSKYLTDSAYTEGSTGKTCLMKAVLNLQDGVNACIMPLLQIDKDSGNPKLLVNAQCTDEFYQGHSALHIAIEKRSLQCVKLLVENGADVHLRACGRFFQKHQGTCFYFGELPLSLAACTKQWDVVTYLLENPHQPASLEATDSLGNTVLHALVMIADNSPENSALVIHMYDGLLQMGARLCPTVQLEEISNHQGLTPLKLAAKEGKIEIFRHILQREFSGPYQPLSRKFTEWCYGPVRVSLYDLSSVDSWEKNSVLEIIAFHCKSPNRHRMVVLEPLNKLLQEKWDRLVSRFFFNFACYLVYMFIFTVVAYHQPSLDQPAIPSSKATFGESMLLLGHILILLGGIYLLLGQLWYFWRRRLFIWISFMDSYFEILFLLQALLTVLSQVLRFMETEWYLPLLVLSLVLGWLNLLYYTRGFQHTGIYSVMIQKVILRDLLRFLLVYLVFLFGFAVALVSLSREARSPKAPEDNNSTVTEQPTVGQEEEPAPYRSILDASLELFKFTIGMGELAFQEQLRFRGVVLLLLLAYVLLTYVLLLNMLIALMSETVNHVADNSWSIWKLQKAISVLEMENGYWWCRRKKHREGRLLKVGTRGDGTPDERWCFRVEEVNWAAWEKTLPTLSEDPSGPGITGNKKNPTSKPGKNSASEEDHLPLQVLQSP
Procedure: Intracellular calcium influx was measured using the Fluo-4 NW calcium assay kit (Molecular Probes/Invitrogen) according to the manufacturer's instructions, as previously described (Laragione et al., “CXCL10 and its Receptor CXCR3 Regulate Synovial Fibroblast Invasion in Rheumatoid Arthritis,” Arthritis Rheum. 63 (11):3274-3283 (2011), which is hereby incorporated by reference in its entirety). Briefly, DA FLS were plated at a density of 4,500 cells/well in a 96-well plate (100 μl volume of complete media per well). After cell adhesion the media was changed to serum-free media for overnight culture. Serum-free media was then replaced with 50 μl of dye loading solution, followed by incubation at 37° C. for 30 minutes and a baseline fluorimetric reading. Then, O1821, LER13, or vehicle were added to their respective wells at different concentrations and fluorescence read immediately in a Fluoroskan Ascent Microplate Fluorometer (Thermo Scientific) with settings appropriate for excitation at 494 nm and emission at 516 nm.

[1] = system: FLS from DA rats with PIA; assay: Matrigel transwell invasion assay, FLS from DA rats with PIA (incl. siRNA knock-down); format: cell-based, rat; conditions: for Reduction of FLS invasion: DA cells, overnight
Procedure: The in vitro invasiveness of FLS was assayed in a transwell system using Matrigel-coated inserts (BD Biosciences, Franklin Lakes, N.J.), as previously described (Tolboom et al., “Invasiveness of Fibroblast-Like Synoviocytes is an Individual Patient Characteristic Associated with the Rate of Joint Destruction in Patients with Rheumatoid Arthritis,” Arthritis Rheum. 52 (7):1999-2002 (2005); Laragione et al., “The Arthritis Severity Locus Cia5d is a Novel Genetic Regulator of the Invasive Properties of Synovial Fibroblasts,” Arthritis Rheum. 58 (8):2296-2306 (2008), which are hereby incorporated by reference in their entirety). Briefly, 70-80% confluent cells were harvested by trypsin-EDTA digestion, and re-suspended at 2.0×10^4 cells in 500 μl of serum-free DMEM. Cells were placed in the upper compartment of the Matrigel-coated inserts. Where indicated, O1821, LER13, or vehicle was added to the upper chamber. The lower compartment was filled with complete media and the plates were incubated at 37° C. for 24 hours. After 24 hours the upper surface of the insert was wiped with cotton-swabs to remove non-invading cells and the Matrigel layer. The opposite side of the insert was stained with Crystal Violet (Sigma) and the total number of cells that invaded through Matrigel counted at 100× magnification. Experiments were done in duplicate.
Dharmacon SMARTpool siRNA targeting Trpv2, Gapdh, or a non-coding control were purchased from Thermo Scientific (Lafayette, Colo.) and transfected into DA FLS according to the manufacturer's instructions. Cells were then incubated at 37° C. for 72 hours prior to initiating the invasion assays. Knock-down was confirmed with qPCR and Western blot.

[2] = system: FLS from a C57BL/6 mouse with KRN serum-induced arthritis; assay: Matrigel transwell invasion assay, mouse FLS; format: cell-based; conditions: 10 μM, one cell line in triplicate
Procedure: The in vitro invasiveness of FLS was assayed in a transwell system using Matrigel-coated inserts (BD Biosciences, Franklin Lakes, N.J.), as previously described (Tolboom et al., “Invasiveness of Fibroblast-Like Synoviocytes is an Individual Patient Characteristic Associated with the Rate of Joint Destruction in Patients with Rheumatoid Arthritis,” Arthritis Rheum. 52 (7):1999-2002 (2005); Laragione et al., “The Arthritis Severity Locus Cia5d is a Novel Genetic Regulator of the Invasive Properties of Synovial Fibroblasts,” Arthritis Rheum. 58 (8):2296-2306 (2008), which are hereby incorporated by reference in their entirety). Briefly, 70-80% confluent cells were harvested by trypsin-EDTA digestion, and re-suspended at 2.0×10^4 cells in 500 μl of serum-free DMEM. Cells were placed in the upper compartment of the Matrigel-coated inserts. Where indicated, O1821, LER13, or vehicle was added to the upper chamber. The lower compartment was filled with complete media and the plates were incubated at 37° C. for 24 hours. After 24 hours the upper surface of the insert was wiped with cotton-swabs to remove non-invading cells and the Matrigel layer. The opposite side of the insert was stained with Crystal Violet (Sigma) and the total number of cells that invaded through Matrigel counted at 100× magnification. […]

SMILES | Calcium influx higher compared with O1821 (Trpv2; DA FLS) | Intracellular calcium influx vs untreated and vehicle (Trpv2) | Calcium influx (Trpv2; measured over 200 seconds, compared with O1821) | Suppression of FLS invasion ([1]; 10 μM, non-transfected, siRNA control and siRNA GAPDH DA FLS, listed as LER13) | Suppression of FLS invasion after Trpv2 siRNA knock-down ([1]; siRNA Trpv2 transfected FLS, listed as LER13) | Reduction in invasion vs control vehicle ([2]; listed as LER13) | Reduction of FLS invasion ([1]; 1 μM) | Reduction of FLS invasion ([1]; 10 μM) | Reduction in invasion vs control vehicle [2]
C#Cc1cc(O)c(C2C=C(C)CCC2C(=C)C)c(O)c1C1C=C(C)CCC1C(=C)C [Compound 13, (1R,2″R,2R,2″S)-6′-ethynyl-5,5″-dimethyl-2,2″-di(prop-1-en-2-yl)-1,1″,2,2″,3,3″,4,4″-octahydro-[1,1′:3′,1″-terphenyl]-2′,4′-diol] | ~30% | significantly increased intracellular calcium influx | increased (30% greater than O1821) | 65% and 60% | non-responsive; also recorded: not responsive or suppressed | 65% and 75% |  |  | 
C=C(C)[C@@H]1CCC(C)=C[C@H]1c1c(O)cc(C)cc1O [Compound O1821] |  | significant dose-dependent increase; also recorded: significantly increased intracellular calcium influx |  |  |  |  | 80% | 99.4% | 65%
